Reference: ChEMBL document CHEMBL1124195, “Substituted benzamides with conformationally restricted side chains. 2. Indolizidine derivatives as central dopamine receptor antagonists” (J Med Chem, 1988)
Active and inactive are the calls of the source. No cut-off for these calls is given here.

What follows are compounds tested against D(2) dopamine receptor (Rattus norvegicus, UniProt P61169) (assay: Binding affinity against Dopamine receptor D2 at 10e-3 M concentration using [3H]spiperone in rat striatal tissue). Conditions: not given.
D(2) dopamine receptor, sequence (P61169 whole entry): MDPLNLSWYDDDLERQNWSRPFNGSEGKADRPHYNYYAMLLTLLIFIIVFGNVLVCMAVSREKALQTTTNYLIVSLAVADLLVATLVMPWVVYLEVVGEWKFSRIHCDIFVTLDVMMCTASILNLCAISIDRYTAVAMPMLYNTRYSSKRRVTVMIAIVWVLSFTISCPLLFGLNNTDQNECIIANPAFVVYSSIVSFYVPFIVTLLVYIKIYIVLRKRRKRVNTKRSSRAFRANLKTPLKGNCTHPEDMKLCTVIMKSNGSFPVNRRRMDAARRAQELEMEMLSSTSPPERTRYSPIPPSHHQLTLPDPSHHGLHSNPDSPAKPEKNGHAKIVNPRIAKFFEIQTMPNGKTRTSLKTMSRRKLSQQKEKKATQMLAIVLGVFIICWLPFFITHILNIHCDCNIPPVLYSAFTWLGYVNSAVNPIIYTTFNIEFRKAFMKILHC
With `COc1cc(N)c(Cl)cc1C(=O)NC1CCN2CC(C)(c3ccccc3)CC2C1` (centres undefined) the Ki was 250 nM.

Each compound was assayed against D(1A) dopamine receptor (Rattus norvegicus, UniProt P18901) (assay: Binding affinity against Dopamine receptor D1 at 10e-3 M concentration using cis-[3H]flupenthixol in rat striatal tissue). Conditions: not given.
D(1A) dopamine receptor, sequence (P18901 whole entry): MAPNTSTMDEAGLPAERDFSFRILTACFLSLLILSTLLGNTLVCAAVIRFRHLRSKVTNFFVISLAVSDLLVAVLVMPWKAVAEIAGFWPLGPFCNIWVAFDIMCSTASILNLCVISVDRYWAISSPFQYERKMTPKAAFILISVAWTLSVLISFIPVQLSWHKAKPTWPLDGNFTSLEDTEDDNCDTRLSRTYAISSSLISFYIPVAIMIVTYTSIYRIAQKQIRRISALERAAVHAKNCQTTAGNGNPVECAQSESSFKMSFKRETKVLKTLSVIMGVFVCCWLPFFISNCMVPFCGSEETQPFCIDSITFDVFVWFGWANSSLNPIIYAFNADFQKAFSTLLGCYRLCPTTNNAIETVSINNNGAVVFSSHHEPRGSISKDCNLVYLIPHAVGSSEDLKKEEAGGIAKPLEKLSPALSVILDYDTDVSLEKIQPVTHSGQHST
In the case of `COc1cc(N)c(Cl)cc1C(=O)NC1CCN2CC(C)(c3ccccc3)CC2C1` (centres undefined), the Ki is reported as > 10000 nM.

The compounds below were run on Mus musculus (assay: Evaluated for the antagonism of apomorphine-induced climbing behavior in mice (sc)). Conditions: not given.
Type: functional
`COc1cc(N)c(Cl)cc1C(=O)NC1CCN2CC(c3ccccc3F)CC2C1` (centres undefined) was tested, and the ED50 was 0.03 mg/kg. `COc1cc(N)c(Cl)cc1C(=O)NC1CC(C)N2CC(c3ccccc3)CC2C1` (centres undefined) showed an ED50 of 0.4 mg/kg. In the case of `COc1cc(N)c(Cl)cc1C(=O)NC1CCN2C[C@@H](c3ccccc3)CCC2C1` (some centres undefined), the ED50 is reported as > 1 mg/kg. `COc1cc(N)c(Cl)cc1C(=O)NC1CCN2C[C@H](c3ccccc3)CC2C1` (some centres undefined) was tested, and the ED50 was > 3 mg/kg. `COc1cc(N)c(Cl)cc1C(=O)NC1CCN2C[C@H](c3ccccc3)CCC2C1` (some centres undefined) was tested, and the ED50 was > 1 mg/kg. With `COc1cc(N)c(Cl)cc1C(=O)NC1CCN(Cc2ccccc2)CC1` [CLEBOPRIDE] the ED50 was 0.037 mg/kg. With `COc1cc(N)c(Cl)cc1C(=O)NC1CCN2CC(C)(c3ccccc3)CC2C1` (centres undefined) the ED50 was 0.078 mg/kg. Compound `COc1cc(N)c(Cl)cc1C(=O)NC1CCN2CC(c3ccc(F)cc3)CC2C1` (centres undefined) has an ED50 of 0.015 mg/kg. Compound `CCN(CC)CCNC(=O)c1cc(Cl)c(N)cc1OC` [METOCLOPRAMIDE] has an ED50 of 0.75 mg/kg. Compound `COc1cc(N)c(Cl)cc1C(=O)NC1CCN2C[C@@H](c3ccccc3)CC2C1` (some centres undefined) has an ED50 of 0.024 mg/kg. In the case of `COc1cc(N)c(Cl)cc1C(=O)NC1CCN2CC(c3ccccc3)(c3ccccc3)CC2C1` (centres undefined), the ED50 is reported as > 1 mg/kg.

Each compound was assayed on Rattus norvegicus (assay: Effective concentration for inhibition of amphetamine-induced locomotor activity in rats 4 hr after dosing administered intraperitoneally). Conditions: ip.
Type: functional
`COc1cc(N)c(Cl)cc1C(=O)NC1CCN2CC(C)(c3ccccc3)CC2C1` (centres undefined) was tested, and the ED50 was 0.02 mg/kg.

These compounds were tested on Rattus norvegicus (assay: Compound was tested for inducing catalepsy 4 hr after dose administered intraperitoneally). Conditions: ip.
Type: functional
`COc1cc(N)c(Cl)cc1C(=O)NC1CCN2CC(C)(c3ccccc3)CC2C1` (centres undefined) showed an ED50 of 3.4 mg/kg.

These compounds were tested on Rattus norvegicus (assay: Evaluated for lowest active dose (LAD) for (gastric prokinetic activity) stimulation of intragastric pressure (IGP) in rats (sc)). Conditions: not given.
Type: functional
For `COc1cc(N)c(Cl)cc1C(=O)NC1CCN2C[C@H](c3ccccc3)CC2C1` (some centres undefined), the LAD was 1 mg/kg. Compound `COc1cc(N)c(Cl)cc1C(=O)NC1CCN(Cc2ccccc2)CC1` [CLEBOPRIDE] has an LAD of 1 mg/kg. With `CCN(CC)CCNC(=O)c1cc(Cl)c(N)cc1OC` [METOCLOPRAMIDE] the LAD was 1 mg/kg.

What follows are compounds tested on Rattus norvegicus (assay: Evaluated for lowest active dose (LAD) for (gastric prokinetic activity) stimulation of intragastric pressure (IGP) in rats (sc); Inactive (0.5-10 mg/kg)). Conditions: not given.
Type: functional, organism-based
In the case of `COc1cc(N)c(Cl)cc1C(=O)NC1CC(C)N2CC(c3ccccc3)CC2C1` (centres undefined), the LAD is reported as “inactive”. In the case of `COc1cc(N)c(Cl)cc1C(=O)NC1CCN2C[C@@H](c3ccccc3)CCC2C1` (some centres undefined), the LAD is reported as “inactive”. `COc1cc(N)c(Cl)cc1C(=O)NC1CCN2C[C@H](c3ccccc3)CCC2C1` (some centres undefined) was tested, and the LAD was “inactive”. With `COc1cc(N)c(Cl)cc1C(=O)NC1CCN2CC(C)(c3ccccc3)CC2C1` (centres undefined) the LAD was “inactive”. For `COc1cc(N)c(Cl)cc1C(=O)NC1CCN2C[C@@H](c3ccccc3)CC2C1` (some centres undefined), the LAD was “inactive”. With `COc1cc(N)c(Cl)cc1C(=O)NC1CCN2CC(c3ccccc3)(c3ccccc3)CC2C1` (centres undefined) the LAD was “inactive”.
